Laboratory results as given in PubChem BioAssay (NCI).
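A five-concentration, 48-hour dose response in 96-well plates underlies each endpoint, interpolated linearly between surrounding concentrations. GI50 is the concentration that inhibits growth by half. At the TGI there is no net growth.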

Legend:
Test in all cases: inhibition of tumour cell growth, NCI panel, 48 h
[1] = test system: HOP-62 NSCLC
[2] = test system: SF-295 CNS
[3] = test system: SR leukemia
[4] = test system: SNB-19 CNS
[5] = test system: SK-MEL-5 melanoma
[6] = test system: SW-620 colon
[7] = test system: OVCAR-3 ovarian
[8] = test system: HCT-116 colon
[9] = test system: 786-0 renal
[10] = test system: NCI-H23 lung
[11] = test system: HL-60(TB) leukemia
[12] = test system: RPMI-8226 leukemia
[13] = test system: UACC-62 melanoma
[14] = test system: NCI-H522 lung
[15] = test system: MDA-MB-468 breast
[16] = test system: OVCAR-4 ovarian
[17] = test system: KM12 colon
[18] = test system: TK-10 renal
[19] = test system: SN12C renal
[20] = test system: CCRF-CEM leukemia
[21] = test system: NCI/ADR-RES ovarian
[22] = test system: PC-3 prostate
[23] = test system: MALME-3M melanoma
[24] = test system: A498 renal
[25] = test system: HCT-15 colon
[26] = test system: SK-OV-3 ovarian
[27] = test system: A549 NSCLC
[28] = test system: NCI-H460 lung
[29] = test system: RXF 393 renal
[30] = test system: CAKI-1 renal
[31] = test system: NCI-H226 lung
[32] = test system: SF-268 CNS
[33] = test system: MDA-MB-231 breast
[34] = test system: MDA-MB-435
[35] = test system: SNB-75 CNS
[36] = test system: UACC-257 melanoma
[37] = test system: OVCAR-8 ovarian
[38] = test system: IGROV1 ovarian
[39] = test system: MOLT-4 leukemia
[40] = test system: DU-145 prostate
[41] = test system: T-47D breast
[42] = test system: UO-31 renal
[43] = test system: HS 578T breast
[44] = test system: SK-MEL-28 melanoma
[45] = test system: ACHN renal
[46] = test system: SK-MEL-2 melanoma
[47] = test system: EKVX NSCLC
[48] = test system: LOX IMVI melanoma
[49] = test system: HOP-92 NSCLC
[50] = test system: K-562 leukemia
[51] = test system: OVCAR-5 ovarian
[52] = test system: M14 melanoma
[53] = test system: BT-549 breast
[54] = test system: MCF7 breast
[55] = test system: U251 CNS
[56] = test system: HCC-2998 colon
[57] = test system: HT29 colon
[58] = test system: SF-539 CNS
[59] = test system: COLO 205 colon

SMILES: CNC(=O)c1cccc(N2CCc3c2ccc(NC(=O)Nc2ccc(N4CCN(C)CC4)c(C(F)(F)F)c2)c3F)c1
- GI50 [1]: 5.23 µM
- TGI [1]: 11.9 µM
- GI50 [2]: 0.717 µM
- TGI [2]: 1.7 µM
- GI50 [3]: 5.74 µM
- TGI [3]: > 36.5 µM
- GI50 [4]: 5.48 µM
- TGI [4]: 10.7 µM
- GI50 [5]: 5.43 µM
- TGI [5]: 10.4 µM
- GI50 [6]: 1.19 µM
- TGI [6]: 5.23 µM
- GI50 [7]: 5.04 µM
- TGI [7]: 11 µM
- GI50 [8]: 5.06 µM
- TGI [8]: 13.8 µM
- GI50 [9]: 1.99 µM
- TGI [9]: 8.25 µM
- GI50 [10]: 5.97 µM
- TGI [10]: 11.8 µM
- GI50 [11]: 7.63 µM
- TGI [11]: 25.7 µM
- GI50 [12]: 1.59 µM
- TGI [12]: > 36.5 µM
- GI50 [13]: 5.9 µM
- TGI [13]: 10.8 µM
- GI50 [14]: 6.46 µM
- TGI [14]: 13.9 µM
- GI50 [15]: 5.41 µM
- TGI [15]: 11.3 µM
- GI50 [16]: 5.07 µM
- TGI [16]: 11.5 µM
- GI50 [17]: 0.166 µM
- TGI [17]: 6.5 µM
- GI50 [18]: 6.21 µM
- TGI [18]: 11.6 µM
- GI50 [19]: 5.81 µM
- TGI [19]: 11.1 µM
- GI50 [20]: 5.43 µM
- TGI [20]: 29.3 µM
- GI50 [21]: 7.02 µM
- TGI [21]: 17.5 µM
- GI50 [22]: 3.91 µM
- TGI [22]: 12.1 µM
- GI50 [23]: 4.17 µM
- TGI [23]: 8.7 µM
- GI50 [24]: 5.36 µM
- TGI [24]: 10.4 µM
- GI50 [25]: 3.92 µM
- TGI [25]: 9.15 µM
- GI50 [26]: 5.93 µM
- TGI [26]: 11.7 µM
- GI50 [27]: 5.75 µM
- TGI [27]: 13.9 µM
- GI50 [28]: 5.27 µM
- TGI [28]: 11.6 µM
- GI50 [29]: 0.976 µM
- TGI [29]: 2.65 µM
- GI50 [30]: 6.04 µM
- TGI [30]: 12 µM
- GI50 [31]: 6.12 µM
- TGI [31]: 14.6 µM
- GI50 [32]: 4.87 µM
- TGI [32]: 12.3 µM
- GI50 [33]: 2.93 µM
- TGI [33]: 7.59 µM
- GI50 [34]: 5.28 µM
- TGI [34]: 10.5 µM
- GI50 [35]: 1.25 µM
- TGI [35]: 6.93 µM
- GI50 [36]: 6.1 µM
- TGI [36]: 12 µM
- GI50 [37]: 7.5 µM
- TGI [37]: 16.4 µM
- GI50 [38]: 6.21 µM
- TGI [38]: 11.7 µM
- GI50 [39]: 1.7 µM
- TGI [39]: 20.9 µM
- GI50 [40]: 5.68 µM
- TGI [40]: 11.3 µM
- GI50 [41]: 6.33 µM
- TGI [41]: 19.3 µM
- GI50 [42]: 5.86 µM
- TGI [42]: 10.8 µM
- GI50 [43]: 1.46 µM
- TGI [43]: 8.54 µM
- GI50 [44]: 4.99 µM
- TGI [44]: 9.81 µM
- GI50 [45]: 5.61 µM
- TGI [45]: 10.5 µM
- GI50 [46]: 6.15 µM
- TGI [46]: 11.8 µM
- GI50 [47]: 5.05 µM
- TGI [47]: 10.2 µM
- GI50 [48]: 5.15 µM
- TGI [48]: 10.3 µM
- GI50 [49]: 5.36 µM
- TGI [49]: 11.6 µM
- GI50 [50]: 6.69 µM
- TGI [50]: > 36.5 µM
- GI50 [51]: 5.45 µM
- TGI [51]: 10.3 µM
- GI50 [52]: 6.78 µM
- TGI [52]: 14.3 µM
- GI50 [53]: 5.14 µM
- TGI [53]: 11.1 µM
- GI50 [54]: 4.63 µM
- TGI [54]: 10.3 µM
- GI50 [55]: 3.73 µM
- TGI [55]: 8.59 µM
- GI50 [56]: 5.3 µM
- TGI [56]: 10.3 µM
- GI50 [57]: 1.44 µM
- TGI [57]: 8.51 µM
- GI50 [58]: 1.18 µM
- TGI [58]: 4.94 µM
- GI50 [59]: 6.46 µM
- TGI [59]: 17.5 µM
